Values after ≈ are worked out from the molar mass of the structure shown. Read-outs that look alike come from different tables or passages of the source. Each block holds one compound with its values, some of them ahead of it.
What was measured:
[1] = Tissue accumulation experiment in tumor-bearing mice; format: in vivo, BALB/cA nude mice; parameters: content in Tumor / content in Liver / content in Kidney / content in Heart / content in Lung / content in Muscle / content in Brain: unit not given here; details: 40 mg/kg for 21 days (crystalline form 1 twice a day, sunitinib once a day); 4 hours after administration on day 22
Experimental: Human colon cancer H-29 cells were implanted into the armpits of BALB/cA nude mice. Seven days after the implantation of H-29 cells, 8 female mice were administered with the crystalline form 1 (twice a day) at 40 mg/kg or sunitinib at 40 mg/kg (once a day). The drug administration was continuous for 21 days. Plasma, tissue and tumor samples were collected for analysis 4 hours after the administration on the 22nd day morning.

[2] = Thermodynamic stability experiment in solvents at 60° C. (XRD); format: physicochemical; details: one day
Experimental: The crystalline form 1, crystalline form 2, crystalline form 3 and crystalline form 7 of the compound of formula I were mixed with acetone, ethyl acetate, methanol, water and tetrahydrofuran respectively, and then kept at 60° C. for one day for the investigation of the thermodynamic stability of each crystalline form. Insoluble solid was recovered by filtration and analyzed by XRD. Analysis conditions: Shimadzu XRD-6000, CuK source (1.54056 A) 40 kV, 30 mA; detection angle: 5-50°, speed: 5°/min.

[3] = Solubility determination in water by HPLC; format: physicochemical; details: suspension in water, 25° C.
Experimental: HPLC detection was performed using the crystalline form 1 as a standard, with its concentration of 204.2 μg*mL^−1 and its content set as 100%, and the detection was performed 7 times. The average peak area was 159.691 mAU*min (retention time was 7.4 min).

[4] = Dynamic vapor sorption (DVS) / moisture absorption; format: physicochemical
Experimental: (4) Dynamic Water Adsorption (DVS), TA Instruments Q5000 TGA; controlling software: Thermal Advantage; analysis software: Universal Analysis; sample plate: platinum crucible; amount of the sample to be detected: 1-10 mg; protective gas: nitrogen; gas flow fate: 10 mL/min; detection method: equilibration at 25° C., humidity: 0%, isothermal treatment: 90 min, weight change to be detected: from 0% RH to 80% RH;
(§1) The moisture content, solubility and dissolution rate of the crystalline forms 1 and 2 were detected using the methods described above. The results are shown in Table 21, which indicate that the solubility, dissolution, and moisture content (total pharmaceutical properties) of the crystalline form 1 are higher than that of the crystalline form 2. Moreover, the crystalline forms 1 and 2 have the highest solubility in methanol.

[5] = Dissolution rate of crystalline forms 1 and 2; format: physicochemical
Excerpt: as §1

[6] = Pharmacokinetic experiment, oral administration; format: in vivo, Sprague Dawley rats; details: rat, 10 mg/kg, suspension in 0.5% CMC
Experimental: Twelve Sprague Dawley rats with weight of 230-250 g were randomly divided into 2 groups, wherein each group consisted of 3 males and 3 females. Crystalline forms 1 and 2 were separately prepared as suspensions in 0.5% carboxymethylcellulose (CMC). The rats were fasted for 12 hours with free access to water and then orally administered at a dose of 10 mg/kg. Blood samples (0.2-0.3 ml) before and after 15, 30, 60, 120, 240, 360, 480, 720, 1440 minutes of the oral administration were collected in heparin anticoagulation tubes, which were then centrifuged to obtain plasma. The plasma was stored at −20° C., followed by analysis using API 4000 MS in conjunction with a HPLC unit. The pharmacokinetic parameters Cmax and AUC were calculated according to the determined plasma concentrations and summarized in Table 22.

[7] = Stability of the crystalline forms (HPLC, XRD, DSC); format: physicochemical; details: for HPLC Maximum single impurity %: retention time (min) in brackets; for crystalline form and melting point by XRD and DSC: sealed 80° C. 24 hours, open dish 25° C./60% RH and 40° C./75% RH for 7 days
Experimental: Experimental conditions: the samples were sealed and placed at 80° C. for 24 hours, and then placed in an open dish at 25° C./60% RH (relative humidity) and 40° C./75% RH for 7 days. Detection method: HPLC (only for the starting samples and samples placed at 80° C. for 24 hours), XRD, DSC.
In addition, the long-term stabilities of the crystalline form 1 for 12 months, 24 months, 36 months, and 48 months at 25° C./60% RH were also investigated.

[8] = Solubility of crystalline forms 1 and 2 in various media; format: physicochemical
Excerpt: as §1

[9] = acetone, ethyl acetate, methanol or water, conversion not complete in methanol

SMILES: CCN(CC)CCNC(=O)c1c(C)[nH]c(/C=C2\C(=O)Nc3ccc(F)cc32)c1C [Sunitinib, reference compound]
content in Brain [1]: 333.9 | content in Heart [1]: 3,881.2 | content in Kidney [1]: 14,852.0 | content in Liver [1]: 14,816.6 | content in Lung [1]: 15,713.5 | content in Muscle [1]: 1,483.2 | content in Plasma [1]: 261.3 | content in Tumor [1]: 27,137.2

SMILES: Cc1[nH]c(/C=C2\C(=O)Nc3ccc(F)cc32)c(C)c1C(=O)N[C@H]1CCN(C(=O)N(C)C)C1 [crystalline form 6, 5-[5-fluoro-2-oxo-1,2-dihydro-indole-(3Z)-ylidenemethyl]-2,4-dimethyl-1H-pyrrole-3-carboxylic acid ((S)-1-dimethylcarbamoyl-pyrrolidin-3-yl)-amide]
concentration (solubility in water) ([3]; 0.5 hours): 0.29 µg/mL | concentration (solubility in water) ([3]; 4 hours): 0.37 µg/mL | HPLC Purity % ([7]; 0 day (starting sample)): 99.09% | HPLC Maximum single impurity % ([7]; 0 day (starting sample)): 0.80 (4.73) % | crystalline form and melting point by XRD and DSC [7]: substantially unchanged | HPLC Purity % ([7]; sealed, 80° C./24 h): 99.12% | HPLC Maximum single impurity % ([7]; sealed, 80° C./24 h): 0.78 (4.73) %

SMILES: Cc1[nH]c(/C=C2\C(=O)Nc3ccc(F)cc32)c(C)c1C(=O)N[C@H]1CCN(C(=O)N(C)C)C1 [crystalline form 7, 5-[5-fluoro-2-oxo-1,2-dihydro-indole-(3Z)-ylidenemethyl]-2,4-dimethyl-1H-pyrrole-3-carboxylic acid ((S)-1-dimethylcarbamoyl-pyrrolidin-3-yl)-amide]
crystalline form recovered (XRD) [2, 9]: converted to crystalline form 2 | crystalline form recovered (XRD) ([2]; tetrahydrofuran (THF)): to crystalline form 3 | concentration (solubility in water) ([3]; 0.5 hours): 0.52 µg/mL | concentration (solubility in water) ([3]; 4 hours): 0.61 µg/mL | HPLC Purity % ([7]; 0 day (starting sample)): 99.28% | HPLC Maximum single impurity % ([7]; 0 day (starting sample)): 0.58 (4.73) % | crystalline form and melting point by XRD and DSC [7]: substantially unchanged | HPLC Purity % ([7]; sealed, 80° C./24 h): 98.70% | HPLC Maximum single impurity % ([7]; sealed, 80° C./24 h): 1.19 (4.73) %

More lines, now with the values ahead:

crystalline form recovered (XRD) [2, 9]: converted to crystalline form 2 | crystalline form recovered (XRD) ([2]; tetrahydrofuran (THF)): to crystalline form 3 | concentration (solubility in water) ([3]; 0.5 hours): 0.19 µg/mL | concentration (solubility in water) ([3]; 4 hours): 0.26 µg/mL | Moisture absorption ([4]; RH 50%): 0.064% | Moisture absorption ([4]; RH 80%): 0.112% | Internal dissolution rate [5]: 0.0062 mg/(min · cm^2) | AUC(0-t) ([6]; female, Sprague Dawley, plasma, po, female 1, read-out: AUC(0-t)): 4340 ng·h/mL | Cmax ([6]; female, Sprague Dawley, plasma, po, female 1, read-out: Cmax): 317 ng/mL | AUC(0-t) ([6]; oral 10 mg/kg, average value): 3320.9 ng·h/mL | Cmax ([6]; oral 10 mg/kg, average value): 313.8 ng/mL | AUC(0-t) ([6]; oral 10 mg/kg, female 2): 3899.2 ng·h/mL | Cmax ([6]; oral 10 mg/kg, female 2): 451.4 ng/mL | AUC(0-t) ([6]; oral 10 mg/kg, female 3): 7850.6 ng·h/mL | Cmax ([6]; oral 10 mg/kg, female 3): 614.6 ng/mL | AUC(0-t) ([6]; oral 10 mg/kg, male 1): 1557.1 ng·h/mL | Cmax ([6]; oral 10 mg/kg, male 1): 204.4 ng/mL | AUC(0-t) ([6]; oral 10 mg/kg, male 2): 925.0 ng·h/mL | Cmax ([6]; oral 10 mg/kg, male 2): 114.7 ng/mL | AUC(0-t) ([6]; oral 10 mg/kg, male 3): 1349.3 ng·h/mL | Cmax ([6]; oral 10 mg/kg, male 3): 180.4 ng/mL | HPLC Purity % ([7]; 0 day (starting sample)): 97.76% | HPLC Maximum single impurity % ([7]; 0 day (starting sample)): 2.15 (4.73) % | crystalline form and melting point by XRD and DSC [7]: substantially unchanged | HPLC Purity % ([7]; sealed, 80° C./24 h): 98.95% | HPLC Maximum single impurity % ([7]; sealed, 80° C./24 h): 0.96 (4.73) % | Solubility ([8]; 1% Tween 80): 20 µg/mL (≈ 45.5 µM) | Solubility ([8]; 1% sodium lauryl sulfate): 580 µg/mL (≈ 1320 µM) | Solubility ([8]; 2% sodium lauryl sulfate): 950 µg/mL (≈ 2160 µM) | Solubility ([8]; PEG 400, organic solvent or mixture, thermodynamic from solid, PEG 400, read-out: Solubility): 2670 µg/mL (≈ 6080 µM) | Solubility ([8]; acetonitrile): 270 µg/mL (≈ 614 µM) | Solubility ([8]; aqueous solution with pH of 1.0-7.5): 0.0048 to 0.04 µg/mL | Solubility ([8]; ethanol, organic solvent or mixture, thermodynamic from solid, ethanol, read-out: Solubility): 1940 µg/mL (≈ 4410 µM) | Solubility ([8]; glycerin): 120 µg/mL (≈ 273 µM) | Solubility ([8]; methanol): 3500 µg/mL (≈ 7960 µM)
SMILES: Cc1[nH]c(/C=C2\C(=O)Nc3ccc(F)cc32)c(C)c1C(=O)N[C@H]1CCN(C(=O)N(C)C)C1 [crystalline form 2, 5-[5-fluoro-2-oxo-1,2-dihydro-indole-(3Z)-ylidenemethyl]-2,4-dimethyl-1H-pyrrole-3-carboxylic acid ((S)-1-dimethylcarbamoyl-pyrrolidin-3-yl)-amide]

crystalline form recovered (XRD) [2, 9]: converted to crystalline form 2 | crystalline form recovered (XRD) ([2]; tetrahydrofuran (THF)): to crystalline form 3 | concentration (solubility in water) ([3]; 0.5 hours): 0.58 µg/mL | concentration (solubility in water) ([3]; 4 hours): 0.77 µg/mL | HPLC Purity % ([7]; 0 day (starting sample)): 99.14% | HPLC Maximum single impurity % ([7]; 0 day (starting sample)): 0.76 (4.73) % | crystalline form and melting point by XRD and DSC [7]: substantially unchanged | HPLC Purity % ([7]; sealed, 80° C./24 h): 98.32% | HPLC Maximum single impurity % ([7]; sealed, 80° C./24 h): 1.58 (4.73) %
SMILES: Cc1[nH]c(/C=C2\C(=O)Nc3ccc(F)cc32)c(C)c1C(=O)N[C@H]1CCN(C(=O)N(C)C)C1 [crystalline form 3, 5-[5-fluoro-2-oxo-1,2-dihydro-indole-(3Z)-ylidenemethyl]-2,4-dimethyl-1H-pyrrole-3-carboxylic acid ((S)-1-dimethylcarbamoyl-pyrrolidin-3-yl)-amide]

concentration (solubility in water) ([3]; 0.5 hours): 1.66 µg/mL | concentration (solubility in water) ([3]; 4 hours): 0.42 µg/mL | HPLC Purity % ([7]; 0 day (starting sample)): 99.86% | HPLC Maximum single impurity % ([7]; 0 day (starting sample)): 0.05 (8.82) % | crystalline form and melting point by XRD and DSC [7]: substantially unchanged | HPLC Purity % ([7]; sealed, 80° C./24 h): 98.80% | HPLC Maximum single impurity % ([7]; sealed, 80° C./24 h): 1.10 (4.73) %
SMILES: Cc1[nH]c(/C=C2\C(=O)Nc3ccc(F)cc32)c(C)c1C(=O)N[C@H]1CCN(C(=O)N(C)C)C1 [crystalline form 5, 5-[5-fluoro-2-oxo-1,2-dihydro-indole-(3Z)-ylidenemethyl]-2,4-dimethyl-1H-pyrrole-3-carboxylic acid ((S)-1-dimethylcarbamoyl-pyrrolidin-3-yl)-amide]
